From US9204640B2, “2-acyloxy-pyrrolin-4-ones” (BAYER INTELLECTUAL PROPERTY GMBH, priority 2011, dated 2015)

Assays:
Type in all cases: in vivo
[1] = tested on: Phaedon cochleariae; assay: Phaedon test (PHAECO spray treatment); conditions: for effect in % (beetle larvae killed): application rate 500 g/ha, after 7 days, Chinese cabbage leaf discs; for inhibition at 100 g/ha: Phaedon cochleariae, 168 h, 7dat
Procedure: Phaedon Test ([…] Spray Treatment) [table] To produce a suitable preparation of active compound, 1 part by weight of active compound is mixed with the stated amount of solvent and emulsifier, and the concentrate is diluted with emulsifier-containing water to the desired concentration. Discs of Chinese cabbage (Brassica pekinensis) are sprayed with an active compound preparation of the desired concentration and, after drying, populated with larvae of the mustard beetle (Phaedon cochleariae). After 7 days, the effect in % is determined 100% means that all beetle larvae have been killed; 0% means that none of the beetle larvae have been killed. Phaedon Test ([…] Spray Treatment) To produce a suitable preparation of active compound, 1 part by weight of active compound is mixed with the stated amount of solvent and emulsifier, and the concentrate is diluted with emulsifier-containing water to the desired concentration. Discs of Chinese cabbage (Brassica pekinensis) are sprayed with an active compound preparation of the desired concentration and, after drying, populated with larvae of the mustard beetle (Phaedon cochleariae). After the desired period of time, the activity in % is determined. 100% means that all beetle larvae have been killed; 0% means that none of the beetle larvae have been killed.

[2] = tested on: Avena fatua; assay: Herbicidal post-emergence action, AVEFA
Procedure: (§1) 2. Herbicidal Post-Emergence Action
(§2) • Seeds of monocotyledonous and dicotyledonous weed and crop plants are placed in sandy loam in wood-fiber pots, covered with soil and cultivated in a greenhouse under good growth conditions. 2 to 3 weeks after sowing, the test plants are treated at the one-leaf stage. The test compounds, formulated as wettable powders (WP), are then, with a water application rate of 600 l/ha (converted), with 0.2% of wetting agent added, sprayed at various dosages onto the green parts of the plants. After the test plants have been kept in the greenhouse under optimum growth conditions for about 3 weeks, the activity of the preparations is rated visually in comparison to untreated controls (herbicidal activity in percent: 100% activity=the plants have died, 0% activity=like control plants). • In addition to the compounds mentioned above, the following compounds show an activity of 90-100% against Alopecurus myosuroides, Avena fatua, Digitaria sanguinalis, Echinocloa crus-galli, Lolium multiflorum, Setaria viridis and Sorghum halapense when applied by the post-emergence method at 320 g/ha: I-a-2, I-a-4, I-a-5, I-a-7, I-a-9, I-a-10, I-a-11, I-a-12, I-a-13, I-a-15. • In addition to the compounds mentioned above, the following compounds show an activity of 90-100% against Alopecurus myosuroides, Avena fatua, Echinocloa crus-galli, Lolium multiflorum and Setaria viridis when applied by the post-emergence method at 80 g/ha: I-a-1, I-b-2.
(§3) • Seeds of monocotyledonous and dicotyledonous weed plants and crop plants are placed in wood-fiber pots in sandy loam and covered with soil. The test compounds, formulated in the form of wettable powders (WP) or emulsion concentrates (EC), are then, as an aqueous suspension with a water application rate of 600-800 l/ha (converted), with 0.1-0.2% of wetting agent added, applied at various dosages to the surface of the covering soil. • After the treatment, the pots are placed in a greenhouse and kept under good growth conditions for the test plants. […] Herbicidal Post-Emergence Action (Post) • Seeds of monocotyledonous and dicotyledonous weed and crop plants are placed in sandy loam in wood-fiber pots, covered with soil and cultivated in a greenhouse under good growth conditions. 2-3 weeks (stages 10-13 according to the BBCH scale) after sowing, the test plants are treated at a height of 5-10 cm. The test compounds, formulated as wettable powders (WP) or emulsion concentrates (EC), are then, with a water application rate of 600-800 l/ha (converted), with 0.1-0.2% of wetting agent added, sprayed at various dosages onto the green parts of the plants.
(§4) AVEFA: Avena fatua LOLMU: Lolium multiflorum SETVI: Setaria viridis CHEAL: Chenopodium album VIOTR: Viola tricolor VERPE: Veronica persica ORYSA: Oryza sativa TRZAS: Triticum aestivum ZEAMX: Zea mays ALOMY: Alopecurus myosuroides DIGSA: Digitaria sanguinalis ECHCG: Echinocloa crus-galli SORHA: Sorghum halepense AVESA: Avena sativa AMARE: Amaranthus retroflexus SINAL: Sinapis alba STEME: Stellaria media

[3] = tested on: Alopecurus myosuroides; assay: Herbicidal post-emergence action, ALOMY
Procedure: as §1, §2, §3, §4

[4] = tested on: Zea mays; assay: Herbicidal post-emergence action, ZEAMX
Excerpt: as §3, §4

[5] = tested on: Oryza sativa; assay: Herbicidal post-emergence action, ORYSA
Excerpt: as §3, §4

[6] = tested on: Triticum aestivum; assay: Herbicidal post-emergence action, TRZAS
Excerpt: as §3, §4

[7] = tested on: Lolium multiflorum; assay: Herbicidal post-emergence action, LOLMU
Procedure: as §1, §2, §3, §4

[8] = tested on: Digitaria sanguinalis; assay: Herbicidal post-emergence action, DIGSA; conditions: 80 g/ha
Procedure: as §1, §2, §3, §4

[9] = tested on: Sorghum halepense; assay: Herbicidal post-emergence action, SORHA; conditions: for % Activity SORHA: 80 g/ha
Procedure: as §1, §2, §3, §4

[10] = tested on: Echinocloa crus-galli; assay: Herbicidal post-emergence action, ECHCG
Procedure: as §1, §2, §3, §4

[11] = tested on: Setaria viridis; assay: Herbicidal post-emergence action, SETVI; conditions: 80 g/ha
Procedure: as §1, §2, §3, §4

[12] = tested on: Tetranychus urticae; assay: Tetranychus test (TETRUR spray treatment; OP-resistant in Example 10); conditions: for effect in % (spider mites killed): after 5 days, bean leaf discs
Procedure: Tetranychus Test (TETRUR Spray Treatment)
To produce a suitable preparation of active compound, 1 part by weight of active compound is mixed with the stated amount of solvent and emulsifier, and the concentrate is diluted with emulsifier-containing water to the desired concentration. Discs of bean leaves (Phaseolus vulgaris) which are infested by all stages of the greenhouse red spider mite (Tetranychus urticae) are sprayed with an active compound preparation of the desired concentration.
After 5 days, the effect in % is determined. 100% means that all of the spider mites have been killed; 0% means that none of the spider mites have been killed.
Tetranychus Test, OP-Resistant (TETRUR Spray Treatment)
To produce a suitable preparation of active compound, 1 part by weight of active compound is mixed with the stated amount of solvent and emulsifier, and the concentrate is diluted with emulsifier-containing water to the desired concentration.
Discs of bean leaves (Phaseolus vulgaris) which are infested by all stages of the greenhouse red spider mite (Tetranychus urticae) are sprayed with an active compound preparation of the desired concentration.
After the desired period of time, the activity in % is determined. 100% means that all of the spider mites have been killed; 0% means that none of the spider mites have been killed.

[13] = tested on: Myzus persicae; assay: Myzus test (MYZUPE spray treatment); conditions: for effect in % (aphids killed): application rate 500 g/ha, after 5 days, Chinese cabbage leaf discs
Procedure: Myzus Test (MYZUPE Spray Treatment) [table] To produce a suitable preparation of active compound, 1 part by weight of active compound is mixed with the stated amount of solvent and emulsifier, and the concentrate is diluted with emulsifier-containing water to the desired concentration. Discs of Chinese cabbage (Brassica pekinensis) infected by all stages of the green peach aphid (Myzus persicae) are sprayed with an active compound preparation of the desired concentration. After 5 days, the effect in % is determined 100% means that all of the aphids have been killed; 0% means that none of the aphids have been killed. Myzus Test (MYZUPE Spray Treatment) To produce a suitable preparation of active compound, 1 part by weight of active compound is mixed with the stated amount of solvent and emulsifier, and the concentrate is diluted with emulsifier-containing water to the desired concentration. Discs of Chinese cabbage (Brassica pekinensis) infected by all stages of the green peach aphid (Myzus persicae) are sprayed with an active compound preparation of the desired concentration. After the desired period of time, the activity in % is determined. 100% means that all of the aphids have been killed; 0% means that none of the aphids have been killed.

[14] = tested on: Boophilus microplus; assay: Boophilus microplus test (BOOPMI injection); conditions: 20 μg/animal, after 7 days
Procedure: Boophilus Microplus Test (BOOPMI Injection) [table] To prepare an appropriate active compound formulation, 10 mg of active compound are mixed with 0.5 ml of solvent and the concentrate is diluted with solvent to the desired concentration. The solution of active compound is injected into the abdomen (Boophilus microplus), and the animals are transferred into dishes and kept in a climatized room. The activity is assessed by deposition of fertile eggs. After 7 days, the effect in % is determined. 100% means that none of the ticks has laid any fertile eggs.

Structure (SMILES): CCCc1cc(Br)cc(Br)c1C1=C(OC(=O)C(C)(C)C)NC(C)(C)C1=O [I-a-11]
- effect in % (beetle larvae killed) [1]: 83%

Structure (SMILES): CCc1cc(Cl)cc(OC)c1C1=C(OC(=O)C(C)C)C2(CCCCC2)NC1=O
- % Activity AVEFA ([2]; concentration 80 g/ha 20 g/ha): 20%
- % Activity ALOMY ([3]; concentration 80 g/ha 20 g/ha): 40%
- % Activity ZEAMX ([4]; concentration 80 g/ha 20 g/ha): 20%
- % Activity ORYSA ([5]; concentration 80 g/ha 20 g/ha): 0%
- % Activity TRZAS ([6]; concentration 80 g/ha 20 g/ha, first TRZAS column): 0%
- % Activity TRZAS ([6]; concentration 80 g/ha 20 g/ha, second TRZAS column): 0%
- % Activity LOLMU ([7]; concentration 80 g/ha 20 g/ha): 50%

Structure (SMILES): CCc1cc(Br)cc(Cl)c1C1=C(OC(=O)C(C)(C)C)C2(CCCCC2)NC1=O [I-b-41 known from WO 04/065366]
- inhibition at 80 g/ha ([2]; Avena fatua, post-emergence, 80 g/ha): 0%
- inhibition at 80 g/ha ([3]; Alopecurus myosuroides, post-emergence, 80 g/ha): 0%
- inhibition at 80 g/ha ([8]; Digitaria sanguinalis, post-emergence): 0%
- inhibition at 80 g/ha ([9]; Sorghum halepense, post-emergence): 0%
- inhibition at 80 g/ha ([4]; Zea mays, post-emergence, 80 g/ha): 0%
- inhibition at 80 g/ha ([5]; Oryza sativa, post-emergence, 80 g/ha): 0%
- inhibition at 80 g/ha ([10]; Echinochloa crus-galli, post-emergence, 80 g/ha): 80%
- inhibition at 80 g/ha ([6]; Triticum aestivum, post-emergence, 80 g/ha): 0%
- inhibition at 80 g/ha ([11]; Setaria viridis, post-emergence): 0%
- inhibition at 80 g/ha ([7]; Lolium multiflorum, post-emergence, 80 g/ha): 0%

Structure (SMILES): CCC(C)(C)C(=O)OC1=C(c2cc(C)ccc2C)C(=O)N[C@]12CC[C@@H](OC)CC2
- inhibition at 500 g/ha ([12]; Tetranychus urticae, 120 h, 500 g/ha, 5dat, OP-resistant): 0%
- inhibition at 20 g/ha ([13]; Myzus persicae, 120 h, 20 g/ha, 5dat): 0%

Structure (SMILES): CCc1cc(Br)cc(Cl)c1C1=C(OC(=O)C(C)(C)C)NC2(CCCCC2)C1=O [I-a-14]
- effect in % (spider mites killed) ([12]; application rate 500 g/ha): 90%
- % Activity AVEFA ([2]; 80 g/ha): 100%
- % Activity ALOMY ([3]; 80 g/ha): 80%
- effect in % (beetle larvae killed) [1]: 100%
- % Activity DIGSA [8]: 100%
- % Activity SORHA [9]: 100%
- % Activity SORHA ([9]; second SORHA column): 90%
- effect in % (aphids killed) [13]: 90%
- % Activity ZEAMX ([4]; 80 g/ha): 100%
- efficacy in % (deposition of fertile eggs) [14]: 80%
- % Activity ORYSA ([5]; 80 g/ha): 80%
- % Activity ECHCG ([10]; 80 g/ha): 100%
- % Activity TRZAS ([6]; 80 g/ha): 90%
- % Activity SETVI [11]: 100%
- % Activity LOLMU ([7]; 80 g/ha): 100%

Structure (SMILES): CCc1cc(Br)cc(C)c1C1=C(OC(=O)C(C)(C)C)C2(CCC(OC)CC2)NC1=O (centres unmarked) [I-b-2 known from WO 05/006125]
- inhibition at 20 g/ha ([10]; Echinochloa crus-galli, post-emergence, 20 g/ha): 50%

Structure (SMILES): CCOC(=O)OC1=C(c2c(CC)cc(C)cc2C2CC2)C(=O)C(C)(C)N1 [I-b-5]
- effect in % (aphids killed) [13]: 100%

Structure (SMILES): CCOC(=O)OC1=C(c2cc(C)ccc2C)C(=O)N[C@@]12CCC[C@@H](COC)C2 [I-1-c-2 known from WO 07/048545]
- inhibition at 100 g/ha [1]: 50%
- inhibition at 4 g/ha ([13]; Myzus persicae, 120 h, 5dat): 0%

Structure (SMILES): CCOC(=O)OC1=C(c2cc(C)c(Cl)cc2C)C(=O)C2(CCC(COC)CC2)N1 (centres unmarked) [I-b-4]
- effect in % (aphids killed) [13]: 90%

Structure (SMILES): CCC(C)(C)C(=O)OC1=C(c2cc(C)ccc2C)C(=O)C2(CCC(OC)CC2)N1 (centres unmarked) [I-a-16]
- % Activity TETRUR ([12]; 500 g/ha, 5dat, OP-resistant): 90%
- effect in % (spider mites killed) ([12]; application rate 500 g/ha): 90%
- % Activity MYZUPE ([13]; 20 g/ha, 5dat): 100%
- effect in % (aphids killed) [13]: 100%

Structure (SMILES): CCc1cc(C)cc(Br)c1C1=C(OC(=O)C(C)C)NC(C)(C)C1=O [Example I-a-1]
- effect in % (beetle larvae killed) [1]: 83%
- effect in % (aphids killed) [13]: 90%

Structure (SMILES): CCc1cc(Br)cc(C)c1C1=C(OC(=O)C(C)(C)C)NC2(CCC(OC)CC2)C1=O (centres unmarked) [I-a-5]
- % Activity ECHCG ([10]; 20 g/ha): 80%

Structure (SMILES): CCOC(=O)OC1=C(c2cc(C)ccc2C)C(=O)[C@@]2(CCC[C@H](COC)C2)N1 [I-b-1]
- effect in % (spider mites killed) ([12]; application rate 100 g/ha): 100%
- inhibition at 100 g/ha [1]: 100%
- effect in % (beetle larvae killed) [1]: 100%
- inhibition at 4 g/ha ([13]; Myzus persicae, 120 h, 5dat): 90%
- effect in % (aphids killed) [13]: 100%
- efficacy in % (deposition of fertile eggs) [14]: 95%
